The source made the active and inactive calls. The calls are words filed in the database; no cut-off is given here.
Columns and labels:
SK-HEP1 [1] = experiment: Antiproliferative activity against human SK-HEP1 cells cultured as 2D cells assessed as inhibition of cell growth at 10 uM incubated for 72 hrs by CCK-8 assay; format: functional, cell-based
HCCLM3 [2] = experiment: Antiproliferative activity against human HCCLM3 cells cultured as 2D cells assessed as inhibition of cell growth at 10 uM incubated for 72 hrs by CCK-8 assay; format: functional, cell-based
SK-HEP1 [3] = experiment: Antiproliferative activity against human SK-HEP1 cells cultured as 3D cells assessed as inhibition of cell growth at 10 uM incubated for 72 hrs by CellTiter-Lumi assay; format: functional, cell-based
HCCLM3 [4] = experiment: Antiproliferative activity against human HCCLM3 cells cultured as 3D cells assessed as inhibition of cell growth at 10 uM incubated for 72 hrs by CellTiter-Lumi assay; format: functional, cell-based
HCCLM3 [5] = experiment: Antiproliferative activity against human HCCLM3 cells cultured as 3D cells assessed as inhibition of colony formation at 25 uM incubated for 21 days by 3D soft-agar based microscopic analysis; format: functional, cell-based; conditions: time 21.0 day
SK-HEP1 [6] = experiment: Inhibition of cell migration in human SK-HEP1 cells at 10 uM incubated for 24 hrs by wound healing assay; format: functional, cell-based
HCCLM3 [7] = experiment: Inhibition of cell migration in human HCCLM3 cells at 10 uM incubated for 24 hrs by wound healing assay; format: functional, cell-based
SK-HEP1 [8] = experiment: Inhibition of cell migration in human SK-HEP1 cells at 10 uM incubated for 24 hrs by transwell assay; format: functional, cell-based
HCCLM3 [9] = experiment: Inhibition of cell migration in human HCCLM3 cells at 10 uM incubated for 24 hrs by transwell assay; format: functional, cell-based
Homo sapiens = species: Homo sapiens; experiment: Inhibition of recombinant human TRBP/recombinant human Dicer protein protein interaction at 25 uM by indirect-competition-ELISA
SK-HEP1 [10] = experiment: Antiproliferative activity against TARBP2-knockout human SK-HEP1 cells cultured as 3D cells assessed as inhibition of cell growth at 25 uM incubated for 72 hrs by CellTiter-Lumi assay; format: functional, cell-based
HCCLM3 [11] = experiment: Antiproliferative activity against TARBP2-knockout human HCCLM3 cells cultured as 3D cells assessed as inhibition of cell growth at 25 uM incubated for 72 hrs by CellTiter-Lumi assay; format: functional, cell-based
SK-HEP1 [12] = experiment: Antiproliferative activity against human SK-HEP1 cells cultured as 3D cells assessed as inhibition of cell growth at 25 uM incubated for 72 hrs by CellTiter-Lumi assay; format: functional, cell-based
SK-HEP1 [13] = experiment: Inhibition of cell migration in human SK-HEP1 cells incubated for 24 hrs by transwell assay; format: functional, cell-based
HCCLM3 [14] = experiment: Inhibition of cell migration in human HCCLM3 cells incubated for 24 hrs by transwell assay; format: functional, cell-based
SK-HEP1 [15] = experiment: Inhibition of cell migration in TARBP2-knockout human SK-HEP1 cells at 1 to 25 uM incubated for 24 hrs by transwell assay; format: functional, cell-based; conditions: dose 1-25 µM
HCCLM3 [16] = experiment: Inhibition of cell migration in TARBP2-knockout human HCCLM3 cells at 1 to 25 uM incubated for 24 hrs by transwell assay; format: functional, cell-based; conditions: dose 1-25 µM
HCCLM3 [17] = experiment: Antiproliferative activity against human HCCLM3 cells assessed as downregulation of SMAD2 phosphorylation incubated for 24 hrs by Western blotting analysis; format: functional, cell-based
HCCLM3 [18] = experiment: Antiproliferative activity against human HCCLM3 cells assessed as downregulation of SMAD3 phosphorylation incubated for 24 hrs by Western blotting analysis; format: functional, cell-based
[19] = Acute toxicity in Kunming mouse assessed as body weight loss at 100 mg/kg,ip administration measured after 14 days; format: organism-based; conditions: in vivo, 336 h, time 14 day
[20] = Acute toxicity in Kunming mouse assessed as effect on AST level in liver at 100 mg/kg,ip administration measured after 14 days; format: organism-based; conditions: in vivo, 336 h, time 14 day
[21] = Acute toxicity in Kunming mouse assessed as effect on ALT level in liver at 100 mg/kg,ip administration measured after 14 days; format: organism-based; conditions: in vivo, 336 h, time 14 day
[22] = Acute toxicity in Kunming mouse assessed as effect on total bilirubin level in liver at 100 mg/kg,ip administration measured after 14 days; format: organism-based; conditions: in vivo, 336 h, time 14 day
[23] = Acute toxicity in Kunming mouse assessed as effect on direct bilirubin level in liver at 100 mg/kg,ip administration measured after 14 days; format: organism-based; conditions: in vivo, 336 h, time 14 day
[24] = Acute toxicity in Kunming mouse assessed as effect on creatinine level in kidney at 100 mg/kg,ip administration measured after 14 days; format: organism-based; conditions: in vivo, 336 h, time 14 day
[25] = Acute toxicity in Kunming mouse assessed as effect on uric acid level in kidney at 100 mg/kg,ip administration measured after 14 days; format: organism-based; conditions: in vivo, 336 h, time 14 day
[26] = Acute toxicity in Kunming mouse assessed as effect on lactate dehydrogenase level in heart at 100 mg/kg,ip administration measured after 14 days; format: organism-based; conditions: in vivo, 336 h, time 14 day
[27] = Acute toxicity in Kunming mouse assessed as pathological change in spleen at 100 mg/kg,ip administration measured after 14 days by hematoxylin and eosin staining based microscopic analysis; format: organism-based; conditions: in vivo, 336 h, time 14 day
[28] = Acute toxicity in Kunming mouse assessed as pathological change in lung at 100 mg/kg,ip administration measured after 14 days by hematoxylin and eosin staining based microscopic analysis; format: organism-based; conditions: in vivo, 336 h, time 14 day
[29] = Acute toxicity in Kunming mouse assessed as pathological change in kidney at 100 mg/kg,ip administration measured after 14 days by hematoxylin and eosin staining based microscopic analysis; format: organism-based; conditions: in vivo, 336 h, time 14 day
[30] = Half life in Sprague-Dawley rat at 10 mg/kg,iv administration by LC-MS/MS analysis; format: ADME, organism-based; conditions: in vivo
[31] = Half life in Sprague-Dawley rat at 25 mg/kg,po administration by LC-MS/MS analysis; format: ADME, organism-based; conditions: in vivo
[32] = Tmax in Sprague-Dawley rat at 25 mg/kg,po administration by LC-MS/MS analysis; format: ADME, organism-based; conditions: in vivo
[33] = Cmax in Sprague-Dawley rat at 10 mg/kg,iv administration by LC-MS/MS analysis; format: ADME, organism-based; conditions: in vivo
[34] = Cmax in Sprague-Dawley rat at 25 mg/kg,po administration by LC-MS/MS analysis; format: ADME, organism-based; conditions: in vivo
[35] = AUC (0 to t) in Sprague-Dawley rat at 10 mg/kg,iv administration by LC-MS/MS analysis; format: ADME, organism-based; conditions: in vivo
[36] = AUC (0 to infinity) in Sprague-Dawley rat at 10 mg/kg,iv administration by LC-MS/MS analysis; format: ADME, organism-based; conditions: in vivo
[37] = MRT (0 to t) in Sprague-Dawley rat at 10 mg/kg,iv administration by LC-MS/MS analysis; format: ADME, organism-based; conditions: in vivo
[38] = MRT (0 to t) in Sprague-Dawley rat at 25 mg/kg,po administration by LC-MS/MS analysis; format: ADME, organism-based; conditions: in vivo
[39] = MRT (0 to infinity) in Sprague-Dawley rat at 10 mg/kg,iv administration by LC-MS/MS analysis; format: ADME, organism-based; conditions: in vivo
[40] = MRT (0 to infinity) in Sprague-Dawley rat at 25 mg/kg,po administration by LC-MS/MS analysis; format: ADME, organism-based; conditions: in vivo
[41] = Clearance in Sprague-Dawley rat at 10 mg/kg,iv administration by LC-MS/MS analysis; format: ADME, organism-based; conditions: in vivo
[42] = Volume of distribution at steady state in Sprague-Dawley rat at 10 mg/kg,iv administration by LC-MS/MS analysis; format: ADME, organism-based; conditions: in vivo, read-out: Vdss
[43] = Oral bioavailability in Sprague-Dawley rat at 25 mg/kg administration by LC-MS/MS analysis; format: ADME, organism-based; conditions: in vivo

## CCOc1ccc(-c2nc(C)c(C(=O)O)s2)cc1
SK-HEP1 [1]
  Activity: inactive
HCCLM3 [2]
  Activity: inactive
SK-HEP1 [3]
  Activity: Active
HCCLM3 [4]
  Activity: Active
HCCLM3 [5]
  Activity: Active
SK-HEP1 [6]
  inhibition: Active
HCCLM3 [7]
  inhibition: Active
SK-HEP1 [8]
  inhibition: Active
HCCLM3 [9]
  inhibition: Active
Homo sapiens
  inhibition: Active
SK-HEP1 [10]
  Activity: inactive
HCCLM3 [11]
  Activity: inactive
SK-HEP1 [12]
  Activity: Active
SK-HEP1 [13]
  inhibition: Dose-dependent-effect
HCCLM3 [14]
  inhibition: Dose-dependent-effect
SK-HEP1 [15]
  inhibition: inactive
HCCLM3 [16]
  inhibition: inactive
HCCLM3 [17]
  Activity: Dose-dependent-effect
HCCLM3 [18]
  Activity: Dose-dependent-effect
[19]
  Activity: Non-toxic
[20]
  Activity: Non-toxic
[21]
  Activity: Non-toxic
[22]
  Activity: Non-toxic
[23]
  Activity: Non-toxic
[24]
  Activity: Non-toxic
[25]
  Activity: Non-toxic
[26]
  Activity: Non-toxic
[27]
  Activity: Non-toxic
[28]
  Activity: Non-toxic
[29]
  Activity: Non-toxic
[30]
  half-life: 1.6 h
[31]
  half-life: 2.7 h
[32]
  Tmax: 0.3 h
[33]
  Cmax: 34900 ng/mL
[34]
  Cmax: 2210 ng/mL
[35]
  AUC(0-t): 9730 ng·h/mL
[36]
  AUC(0-inf): 9740 ng·h/mL
[37]
  MRT last: 0.1 h
[38]
  MRT last: 2.6 h
[39]
  MRT inf: 0.2 h
[40]
  MRT inf: 3.9 h
[41]
  clearance: 17.1 mL/min/kg
[42]
  Vd: 0.161 L/kg
[43]
  bioavailability: 11%

## Cc1nc(-c2ccc(N3CCOCC3)cc2)sc1C(=O)O
SK-HEP1 [1]
  Activity: inactive
HCCLM3 [2]
  Activity: inactive
SK-HEP1 [3]
  Activity: Active
HCCLM3 [4]
  Activity: Active
HCCLM3 [5]
  Activity: Active
SK-HEP1 [6]
  inhibition: Active
HCCLM3 [7]
  inhibition: Active
SK-HEP1 [8]
  inhibition: Active
HCCLM3 [9]
  inhibition: Active
Homo sapiens
  inhibition: Active
SK-HEP1 [10]
  Activity: inactive
HCCLM3 [11]
  Activity: inactive
SK-HEP1 [12]
  Activity: Active
SK-HEP1 [13]
  inhibition: Dose-dependent-effect
HCCLM3 [14]
  inhibition: Dose-dependent-effect
SK-HEP1 [15]
  inhibition: inactive
HCCLM3 [16]
  inhibition: inactive
HCCLM3 [17]
  Activity: Dose-dependent-effect
HCCLM3 [18]
  Activity: Dose-dependent-effect
[19]
  Activity: Non-toxic
[20]
  Activity: Non-toxic
[21]
  Activity: Non-toxic
[22]
  Activity: Non-toxic
[23]
  Activity: Non-toxic
[24]
  Activity: Non-toxic
[25]
  Activity: Non-toxic
[26]
  Activity: Non-toxic
[27]
  Activity: Non-toxic
[28]
  Activity: Non-toxic
[29]
  Activity: Non-toxic
[30]
  half-life: 3.57 h
[31]
  half-life: 3.28 h
[32]
  Tmax: 0.42 h
[33]
  Cmax: 45900 ng/mL
[34]
  Cmax: 19800 ng/mL
[35]
  AUC(0-t): 37400 ng·h/mL
[36]
  AUC(0-inf): 37500 ng·h/mL
[37]
  MRT last: 1.7 h
[38]
  MRT last: 3.5 h
[39]
  MRT inf: 1.8 h
[40]
  MRT inf: 3.7 h
[41]
  clearance: 4.6 mL/min/kg
[42]
  Vd: 0.496 L/kg
[43]
  bioavailability: 53.9%

From ChEMBL document CHEMBL6087465, “Design, Synthesis, and Antitumor Activity Evaluation of 2-Phenylthiazole-5-Carboxylic Acid Derivatives Targeting Transactivation Response RNA-Binding Protein 2” (J Med Chem, 2025)
